From the supplement of paper PMC10307832

Key:
Assay in all cases: relative viability (nuclei count vs DMSO), 5 days (fraction); higher = more cells survive
NCI-H1299 = test system: NCI-H1299
Method in brief: (§1)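 Relative viability is defined as nuclei in treated wells over nuclei in vehicle wells. Duplicate plates were run and medians reported. Lung cancer cell lines in 1536-well plates were dosed by pin tool one day after seeding, with one drug or with a fixed anchor-drug dose plus five library-drug doses (not always all listed) in √10 steps, and nuclei were counted after 5 days.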

NCI-H1703 = test system: NCI-H1703
Method in brief: as §1

NCI-H1437 = test system: NCI-H1437
Method in brief: as §1

HCC-366 = test system: HCC-366
Method in brief: as §1

Calu-6 = test system: Calu-6
Method in brief: as §1

EBC-1 = test system: EBC-1
Method in brief: as §1

NCI-H1623 = test system: NCI-H1623
Method in brief: as §1

IA-LM = test system: IA-LM
Method in brief: as §1

A549 = test system: A549
Method in brief: as §1

HCC-44 = test system: HCC-44
Method in brief: as §1

NCI-H522 = test system: NCI-H522
Method in brief: as §1

`NC(=O)Nc1cc(-c2cccc(F)c2)sc1C(=O)N[C@H]1CCCNC1` [AZD7762] + COc1cc2c(Oc3ccc(NC(=O)C4(C(=O)Nc5ccc(F)cc5)CC4)cc3F)ccnc2cc1OCCCN1CCOCC1 [Foretinib] (partner 0.25 µM) showed a relative viability (NCI-H1299; first compound 0.01 µM) of 1.09, a relative viability (NCI-H1299; first compound 0.03162 µM) of 1.15 and a relative viability (NCI-H1299; first compound 0.1 µM) of 1.09. It also gave a relative viability (NCI-H1299; first compound 0.3162 µM) of 1.07, a relative viability (NCI-H1299; first compound 1 µM) of 0.622 and a relative viability (NCI-H1703; first compound 0.01 µM) of 0.398. The relative viability (NCI-H1703; first compound 0.03162 µM) was 0.34, the relative viability (NCI-H1703; first compound 0.1 µM) was 0.348 and the relative viability (NCI-H1703; first compound 0.3162 µM) was 0.292. The relative viability (NCI-H1703; first compound 1 µM) was 0.174, the relative viability (NCI-H1437; first compound 0.01 µM) was 1.27 and the relative viability (NCI-H1437; first compound 0.03162 µM) was 1.31. For the same compound, the relative viability (NCI-H1437; first compound 0.1 µM) was 1.24, the relative viability (NCI-H1437; first compound 0.3162 µM) was 1.02 and the relative viability (NCI-H1437; first compound 1 µM) was 1.13. It also gave a relative viability (HCC-366; first compound 0.01 µM) of 0.954, a relative viability (HCC-366; first compound 0.03162 µM) of 0.927 and a relative viability (HCC-366; first compound 0.1 µM) of 0.978. For the same compound, the relative viability (HCC-366; first compound 0.3162 µM) was 0.973, the relative viability (HCC-366; first compound 1 µM) was 0.312 and the relative viability (Calu-6; first compound 0.01 µM) was 0.805. For the same compound, the relative viability (Calu-6; first compound 0.03162 µM) was 0.83, the relative viability (Calu-6; first compound 0.1 µM) was 0.831 and the relative viability (Calu-6; first compound 0.3162 µM) was 0.264. It also gave a relative viability (Calu-6; first compound 1 µM) of 0.0933, a relative viability (EBC-1; first compound 0.01 µM) of 0.101 and a relative viability (EBC-1; first compound 0.03162 µM) of 0.0952. It also gave a relative viability (EBC-1; first compound 0.1 µM) of 0.105, a relative viability (EBC-1; first compound 0.3162 µM) of 0.119 and a relative viability (EBC-1; first compound 1 µM) of 0.116. The relative viability (NCI-H1623; first compound 0.01 µM) was 0.874, the relative viability (NCI-H1623; first compound 0.03162 µM) was 0.821 and the relative viability (NCI-H1623; first compound 0.1 µM) was 1. The relative viability (NCI-H1623; first compound 0.3162 µM) was 0.96, the relative viability (NCI-H1623; first compound 1 µM) was 0.664 and the relative viability (IA-LM; first compound 0.01 µM) was 1.44. It also gave a relative viability (IA-LM; first compound 0.03162 µM) of 1.29, a relative viability (IA-LM; first compound 0.1 µM) of 1.48 and a relative viability (IA-LM; first compound 0.3162 µM) of 1.29. For the same compound, the relative viability (IA-LM; first compound 1 µM) was 0.59, the relative viability (A549; first compound 0.01 µM) was 1.02 and the relative viability (A549; first compound 0.03162 µM) was 0.928. The relative viability (A549; first compound 0.1 µM) was 0.942, the relative viability (A549; first compound 0.3162 µM) was 0.837 and the relative viability (A549; first compound 1 µM) was 0.259.

Compound `NC(=O)Nc1cc(-c2cccc(F)c2)sc1C(=O)N[C@H]1CCCNC1` [AZD7762] + N=C(N)NC(=N)NCCc1ccccc1 [Phenformin] (partner 250 µM) has a relative viability (NCI-H1437; first compound 0.01 µM) of 0.304, a relative viability (NCI-H1437; first compound 0.03162 µM) of 0.225 and a relative viability (NCI-H1437; first compound 0.1 µM) of 0.328. It also gave a relative viability (NCI-H1437; first compound 0.3162 µM) of 0.343, a relative viability (NCI-H1437; first compound 1 µM) of 0.279 and a relative viability (HCC-366; first compound 0.01 µM) of 0.601. The relative viability (HCC-366; first compound 0.03162 µM) was 0.615, the relative viability (HCC-366; first compound 0.1 µM) was 0.627 and the relative viability (HCC-366; first compound 0.3162 µM) was 0.485. It also gave a relative viability (HCC-366; first compound 1 µM) of 0.312, a relative viability (HCC-44; first compound 0.01 µM) of 0.154 and a relative viability (HCC-44; first compound 0.03162 µM) of 0.265. It also gave a relative viability (HCC-44; first compound 0.1 µM) of 0.16, a relative viability (HCC-44; first compound 0.3162 µM) of 0.185 and a relative viability (HCC-44; first compound 1 µM) of 0.121. It also gave a relative viability (NCI-H522; first compound 0.01 µM) of 0.668, a relative viability (NCI-H522; first compound 0.03162 µM) of 0.711 and a relative viability (NCI-H522; first compound 0.1 µM) of 0.635. It also gave a relative viability (NCI-H522; first compound 0.3162 µM) of 0.752, a relative viability (NCI-H522; first compound 1 µM) of 0.597 and a relative viability (NCI-H1623; first compound 0.01 µM) of 0.557. It also gave a relative viability (NCI-H1623; first compound 0.03162 µM) of 0.606, a relative viability (NCI-H1623; first compound 0.1 µM) of 0.594 and a relative viability (NCI-H1623; first compound 0.3162 µM) of 0.632. For the same compound, the relative viability (NCI-H1623; first compound 1 µM) was 0.497, the relative viability (A549; first compound 0.01 µM) was 0.167 and the relative viability (A549; first compound 0.03162 µM) was 0.183. For the same compound, the relative viability (A549; first compound 0.1 µM) was 0.187, the relative viability (A549; first compound 0.3162 µM) was 0.188 and the relative viability (A549; first compound 1 µM) was 0.184.

Compound `C=C1C(=O)O[C@@H](CCCCCCCC)[C@@H]1C(=O)O` [C-75] + COc1cc2c(Oc3ccc(NC(=O)C4(C(=O)Nc5ccc(F)cc5)CC4)cc3F)ccnc2cc1OCCCN1CCOCC1 [Foretinib] (partner 0.25 µM) has a relative viability (NCI-H1299; first compound 0.08 µM) of 1.12, a relative viability (NCI-H1299; first compound 0.253 µM) of 1.03 and a relative viability (NCI-H1299; first compound 0.8 µM) of 1.04. It also gave a relative viability (NCI-H1299; first compound 2.53 µM) of 1.04, a relative viability (NCI-H1299; first compound 8 µM) of 1.11 and a relative viability (NCI-H1703; first compound 0.08 µM) of 0.399. The relative viability (NCI-H1703; first compound 0.253 µM) was 0.334, the relative viability (NCI-H1703; first compound 0.8 µM) was 0.325 and the relative viability (NCI-H1703; first compound 2.53 µM) was 0.355. For the same compound, the relative viability (NCI-H1703; first compound 8 µM) was 0.388, the relative viability (NCI-H1437; first compound 0.08 µM) was 1.27 and the relative viability (NCI-H1437; first compound 0.253 µM) was 1.45. For the same compound, the relative viability (NCI-H1437; first compound 0.8 µM) was 1.28, the relative viability (NCI-H1437; first compound 2.53 µM) was 1.13 and the relative viability (NCI-H1437; first compound 8 µM) was 1.23. It also gave a relative viability (HCC-366; first compound 0.08 µM) of 0.909, a relative viability (HCC-366; first compound 0.253 µM) of 0.961 and a relative viability (HCC-366; first compound 0.8 µM) of 0.877. It also gave a relative viability (HCC-366; first compound 8 µM) of 0.845, a relative viability (Calu-6; first compound 0.08 µM) of 0.875 and a relative viability (Calu-6; first compound 0.253 µM) of 0.914. The relative viability (Calu-6; first compound 0.8 µM) was 0.81, the relative viability (Calu-6; first compound 2.53 µM) was 0.634 and the relative viability (Calu-6; first compound 8 µM) was 0.907. The relative viability (EBC-1; first compound 0.08 µM) was 0.101, the relative viability (EBC-1; first compound 0.253 µM) was 0.11 and the relative viability (EBC-1; first compound 0.8 µM) was 0.107. It also gave a relative viability (EBC-1; first compound 8 µM) of 0.0983, a relative viability (NCI-H1623; first compound 0.08 µM) of 0.861 and a relative viability (NCI-H1623; first compound 0.253 µM) of 1.09. It also gave a relative viability (NCI-H1623; first compound 0.8 µM) of 0.747, a relative viability (NCI-H1623; first compound 2.53 µM) of 0.686 and a relative viability (NCI-H1623; first compound 8 µM) of 0.993. It also gave a relative viability (IA-LM; first compound 0.08 µM) of 1.14, a relative viability (IA-LM; first compound 0.253 µM) of 1.38 and a relative viability (IA-LM; first compound 0.8 µM) of 1.02. The relative viability (IA-LM; first compound 2.53 µM) was 1.25, the relative viability (IA-LM; first compound 8 µM) was 1.01 and the relative viability (A549; first compound 0.08 µM) was 0.946. For the same compound, the relative viability (A549; first compound 0.253 µM) was 0.977, the relative viability (A549; first compound 0.8 µM) was 1.01 and the relative viability (A549; first compound 8 µM) was 0.869.
